Laboratory results published in publication PMC11387175, “Model informed dose regimen optimizing in development of leritrelvir for the treatment of mild or moderate COVID-19” (Frontiers in Pharmacology, 2024).

What was measured:
[1] = tested on: CYP1A2, CYP2B6, CYP2C8, CYP2C9, CYP2C19, and CYP2D6; assay: Metabolizing enzyme identification (in-house data); format: in vitro ADME
Beta variant = tested on: Beta variant; set-up: method as in Chen et al., 2024; settings: ref Chen et al., 2024, read-out: concentration for 90% of maximal effect (EC90); cited from earlier work
Delta variant = tested on: Delta variant; set-up: method as in Chen et al., 2024; settings: ref Chen et al., 2024, read-out: concentration for 90% of maximal effect (EC90); cited from earlier work
SARS-CoV-2 [2] = settings: COVID-19 patients; 400 mg TID alone or 300 mg with 100 mg RTV BID; ref Wang et al., 2023; cited from earlier work
Alpha variant = tested on: Alpha variant; set-up: method as in Chen et al., 2024; settings: ref Chen et al., 2024, read-out: concentration for 90% of maximal effect (EC90); cited from earlier work
[3] = tested on: SARS-CoV-2 βCoV/KOR/KCDC03/2020 strain; set-up: method as in Chen et al., 2023; settings: Vero cells, ref Chen et al., 2023, cited from earlier work
Omicron BA.5 = tested on: Omicron BA.5; set-up: method as in Chen et al., 2024; settings: ref Chen et al., 2024, read-out: concentration for 90% of maximal effect (EC90); cited from earlier work
wild strain of COVID-19 = assay: Target concentration needed to achieve EC90; format: cell-based, SARS-CoV-2
SARS-CoV-2 [4] = tested on: SARS-CoV-2; set-up: method as in Zhan et al., 2024; settings: ref Zhan et al., 2024, cited from earlier work
[5] = Population pharmacokinetic analysis of phase I plasma concentrations (SAD, MAD, food effect); format: in vivo, human
Description: (§1) The data obtained from a phase I clinical trial assessing the safety, tolerability, pharmacokinetics, and impact of food on leritrelvir Pharmacokinetics in healthy adult subjects (NCT05829551) were utilized in the PopPK analysis. The trial was designed as a randomized, double-blind, placebo-controlled study involving escalating single and multiple doses. The study design is outlined in Figure 1. In the single-ascending dose (SAD) arm, participants received leritrelvir tablets alone or with 100 mg of RTV. In the multiple-ascending dose (MAD) arm, leritrelvir tablets were given alone or with 100 mg RTV twice-daily on Days 1–4, followed by a single dose on Day 5, or thrice-daily on Days 1–4, followed by a single dose on Day 5. In the food consumption study arm, leritrelvir tablets alone or with 100 mg RTV were administered once during each dosing period after an overnight fast of at least 10 h or following a standard meal (high-fat, high-calorie) on Day 1. Each dosing period included a single administration, totaling two administrations, with a minimum interval of 8 days between periods.
FIGURE 1 Overall study design diagram. The study comprised three distinct components: a single-ascending dose study (SAD), a food effect study, and a multiple-ascending dose study (MAD). The SAD portion of the study was divided into two parts: Part 1 involved a dose escalation study of single-agent administration of RAY1216 tablets (S-1, S-2, and S-3), while Part 2 focused on the combination of RAY1216 tablets with 100 mg RTV (S-1R, S-2R, and S-3R). It should be noted that the S-2R and S-3R groups were initially planned but were ultimately not conducted due to dose-undetermined factors. The food effect study (FE) entails the administration of single doses of RAY1216 tablets at 800 mg (FE-1) and in combination with RTV at 500 mg (FE-2) to groups of 12 subjects. Group A undergoes a fasting administration cycle followed by a postprandial administration cycle, while Group B experiences the reverse order of administration cycles. The two cycles consist of crossover administration with a washout period lasting a minimum of 8 days. The MAD involves the co-administration of RAY1216 tablets (300 mg, 500 mg, and 700 mg) with 100 mg RTV in a BID dosing regimen, with escalating doses administered over 5 consecutive days and solely in the morning on the 5th day. Furthermore, a 400 mg RAY1216 single-agent TID dosing regimen administered over 5 consecutive days with administration limited to the morning on the 5th day.
Leritrelvir PK data was analyzed utilizing nonlinear mixed-effects modeling (NONMEM) ([Lindstrom and Bates, 1990]) and implemented with NONMEM version 7.5 (ICON Development Solutions. Ellicott City, Maryland, USA). The estimation algorithm used was the first-order conditional estimation method with interaction (FOCEI) of interindividual variability and residual variability. Perl Speaks NONMEM (PsN) version 4.2 (Uppsala University, Sweden) ([Lindbom et al., 2004]; [Lindbom et al., 2005]) and R version 4.1.2 were used as tools for executing NONMEM and summarizing outcomes. The model evaluated the impact of age, weight, body mass index, gender, albumin, alanine aminotransferase, aspartate aminotransferase, alkaline phosphatase, serum creatinine, creatinine clearance rate, total bilirubin, gamma-glutamyl transpeptidase, food consumption, and concomitant medication on the pharmacokinetics of leritrelvir. The final PopPK model was determined through a stepwise forward addition (p < 0.01) and backward deletion (p < 0.001) approach. The specifics of the model development process are outlined in the Supplementary Material. Evaluation of the final PopPK model was conducted using goodness-of-fit plots, prediction-corrected visual predictive check (pcVPC) ([Bergstrand et al., 2011]), bootstrapping ([Ette, 1997]), and shrinkage assessments ([Savic and Karlsson, 2009]). […]

[6] = Phase I safety and tolerability in healthy subjects; format: in vivo, human; settings: monotherapy or in combination with ritonavir
Description: as §1

wild-type strain = tested on: wild-type strain; set-up: method as in Chen et al., 2024; settings: ref Chen et al., 2024, read-out: concentration for 90% of maximal effect (EC90); cited from earlier work
Omicron BA.1 = tested on: Omicron BA.1; set-up: method as in Chen et al., 2024; settings: ref Chen et al., 2024, read-out: concentration for 90% of maximal effect (EC90); cited from earlier work
CYP3A = assay: Metabolizing enzyme identification (in-house data); format: in vitro ADME

Structure (SMILES): O=C(NC1CCCC1)C(=O)[C@H](C[C@@H]1CCNC1=O)NC(=O)[C@@H]1[C@H]2CCC[C@H]2CN1C(=O)[C@@H](NC(=O)C(F)(F)F)C1CCCCC1 [leritrelvir]
- involvement of other CYP isoforms in metabolism [1]: minimal to no involvement
- EC90 (Beta variant): 0.688 µM
- EC90 (Delta variant): 0.254 µM
- duration of viral shedding (SARS-CoV-2 [2]): 166 h
- duration of viral shedding shorter than the placebo group (SARS-CoV-2 [2]): 4.2 days
- EC90 (Alpha variant): 0.351 µM
- IC90 ([3]; read-out: 90% inhibitory concentration (IC90)): 0.092 µM
- IC50 ([3]; read-out: half maximal inhibitory concentration (IC50)): 0.036 µM
- EC90 (Omicron BA.5): 0.363 µM
- concentration needed to achieve EC90 (wild strain of COVID-19): 0.165 mg/L
- decrease in the SARS-CoV-2 viral load compared to the placebo (SARS-CoV-2 [4]; 400 mg TID, after a 3-day treatment period): approximately tenfold
- reduction in the time to sustained clinical recovery of all 11 COVID-19 symptoms compared to the placebo (SARS-CoV-2 [4]; oral 400 mg TID for 5 days): 20.3 h
- ratio of estimated clearance of leritrelvir to leritrelvir combined with RTV ([5]; 44.4/12.2): 3.64
- Absorption lag time, ALAG1: Bootstrapping Median (95% CI) ([5]; Comb (with RTV)): 0.166 (0.131–0.185) hr
- Absorption lag time, ALAG1: Population model estimates (%RSE) [95% CI] ([5]; Comb (with RTV)): 0.166 h
- Absorption rate, Ka: Bootstrapping Median (95% CI) ([5]; Comb (with RTV)): 0.170 (0.154–0.185) hr^-1
- Absorption rate, Ka: Population model estimates (%RSE) [95% CI] ([5]; Comb (with RTV)): 0.169 h⁻¹
- Clearance, CL: Bootstrapping Median (95% CI) ([5]; Comb (with RTV)): 12.2 (10.7–14.0) L/h
- Clearance, CL: Population model estimates (%RSE) [95% CI] ([5]; Comb (with RTV)): 12.2 L/h
- Duration of zero order absorption, D1: Bootstrapping Median (95% CI) ([5]; Comb (with RTV)): 0.0719 (0.0412–0.129) hr
- Duration of zero order absorption, D1: Population model estimates (%RSE) [95% CI] ([5]; Comb (with RTV)): 0.0684 h
- Intercompartment clearance between the central compartment and peripheral compartment, Q: Population model estimates (%RSE) [95% CI] ([5]; Comb (with RTV)): 0.611 L/h
- Volume distribution of peripheral compartment, Vc: Bootstrapping Median (95% CI) ([5]; Comb (with RTV)): 9.90 (7.68–13.2) L
- Volume distribution of peripheral compartment, Vc: Population model estimates (%RSE) [95% CI] ([5]; Comb (with RTV)): 9.78 L
- Volume distribution of peripheral compartment, Vp: Bootstrapping Median (95% CI) ([5]; Comb (with RTV)): 9.24 (6.93–12.8) L
- Volume distribution of peripheral compartment, Vp: Population model estimates (%RSE) [95% CI] ([5]; Comb (with RTV)): 9.30 L
- Absorption lag time, ALAG1: Bootstrapping Median (95% CI) ([5]; Mono (leritrelvir alone)): 0.188 (0.164–0.2) hr
- Absorption lag time, ALAG1: Population model estimates (%RSE) [95% CI] ([5]; Mono (leritrelvir alone)): 0.189 h
- Absorption rate, Ka: Bootstrapping Median (95% CI) ([5]; Mono (leritrelvir alone)): 0.292 (0.258–0.329) hr^-1
- Absorption rate, Ka: Population model estimates (%RSE) [95% CI] ([5]; Mono (leritrelvir alone)): 0.293 h⁻¹
- Clearance, CL: Bootstrapping Median (95% CI) ([5]; Mono (leritrelvir alone)): 44.2 (39.0–50.7) L/h
- Clearance, CL: Population model estimates (%RSE) [95% CI] ([5]; Mono (leritrelvir alone)): 44.4 L/h
- Duration of zero order absorption, D1: Bootstrapping Median (95% CI) ([5]; Mono (leritrelvir alone)): 0.078 (0.0359–0.171) hr
- Duration of zero order absorption, D1: Population model estimates (%RSE) [95% CI] ([5]; Mono (leritrelvir alone)): 0.0722 h
- Intercompartment clearance between the central compartment and peripheral compartment, Q: Population model estimates (%RSE) [95% CI] ([5]; Mono (leritrelvir alone)): 5.57 L/h
- Volume distribution of peripheral compartment, Vc: Bootstrapping Median (95% CI) ([5]; Mono (leritrelvir alone)): 18.7 (14.3–25.3) L
- Volume distribution of peripheral compartment, Vc: Population model estimates (%RSE) [95% CI] ([5]; Mono (leritrelvir alone)): 18.9 L
- Volume distribution of peripheral compartment, Vp: Bootstrapping Median (95% CI) ([5]; Mono (leritrelvir alone)): 58.2 (44.7–79.5) L
- Volume distribution of peripheral compartment, Vp: Population model estimates (%RSE) [95% CI] ([5]; Mono (leritrelvir alone)): 58.2 L
- Occasion variability of CL after multiple dose for 12 h, OC1.CL: Bootstrapping Median (95% CI) ([5]; cell for OC2.CL (96 h) is empty below): 18.7 (10–29.3) %
- Occasion variability of Vc after multiple dose for 12 h, OC1.Vc: Bootstrapping Median (95% CI) ([5]; cell for OC2.Vc (96 h) is empty below): 53.1 (34–82.5) %
- Proportional error of fed subjects within 2 h after dose: Bootstrapping Median (95% CI) ([5]; fed subjects, 0-2 h post-dosing): 70.5 (56.4–80.7) %
- Impact of food consumption on D1, D1.FED: Bootstrapping Median (95% CI) ([5]; fed vs fasted): 1.33 (1.22–1.49)
- Impact of food consumption on F1, F1.FED: Bootstrapping Median (95% CI) ([5]; fed vs fasted): 1.50 (1.25–1.82)
- Impact of food consumption on Ka, Ka.FED: Bootstrapping Median (95% CI) ([5]; fed vs fasted): 21.3 (10.8–41)
- Inter-individual variability CL: Bootstrapping Median (95% CI) ([5]; in vivo): 29.9 (25.5–34.6) %
- Inter-individual variability D1: Bootstrapping Median (95% CI) ([5]; in vivo): 152 (114–189) %
- Inter-individual variability Ka: Bootstrapping Median (95% CI) ([5]; in vivo): 25.3 (20.7–29.4) %
- Inter-individual variability Vc: Bootstrapping Median (95% CI) ([5]; in vivo): 79.8 (64.7–93.4) %
- Inter-individual variability Vp: Bootstrapping Median (95% CI) ([5]; in vivo): 43.6 (31–52.5) %
- Residual variability, Proportional residual: Bootstrapping Median (95% CI) ([5]; in vivo): 24.2 (22.4–26.1) %
- enhancement of exposure of leritrelvir by co-administration with RTV ([5]; with RTV vs alone): approximately 4 fold
- Grade 3 or higher adverse events (AEs) [6]: No Grade 3 or higher adverse events (AEs) were reported
- changes in corrected QT (QTc) interval, pulse rate (PR) interval, heart rate, and blood pressure [6]: no meaningful changes were observed
- dose-dependent adverse reactions [6]: No dose-dependent adverse reactions were observed
- serious adverse events (SAEs) [6]: no serious adverse events (SAEs) occurred
- EC90 (wild-type strain): 0.228 µM
- EC90 (Omicron BA.1): 0.208 µM
- role of CYP3A in metabolism (CYP3A): primary metabolizing enzyme
